Laboratory results taken from patent US12600732B2, “Bifunctional compounds for degrading BTK via ubiquitin proteosome pathway” (NURIX THERAPEUTICS, INC., priority 2019, dated 2026).

What was measured:
[1] = system: primary human T cells; assay: T cell activation assay, IL-2 secretion (ELISA); assay type: cell-based; conditions: for IL-2 secretion compared to baseline (anti-CD3/anti-CD28 stimulation alone): primary human T cells
Outline: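 Primary human T cells stimulated via TCR with anti-CD3/anti-CD28 in the presence of test compound. IL-2 secretion measured by ELISA; surface CD25 and CD69 by flow cytometry. Values are fold-change versus anti-CD3/anti-CD28 stimulation without compound.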

[2] = target: T1, ITK (Homo sapiens, UniProt Q08881); assay: ITK levels in MOLT4 and TMD8 cells (FIGS. 10-12); assay type: cell-based; conditions: for effect on ITK levels in cells: MOLT4 and TMD8 cells, FIGS. 11A and 11B
T1 construct: endogenous in cells; host or cells: MOLT4, TMD8
T1 sequence (Q08881 1-620): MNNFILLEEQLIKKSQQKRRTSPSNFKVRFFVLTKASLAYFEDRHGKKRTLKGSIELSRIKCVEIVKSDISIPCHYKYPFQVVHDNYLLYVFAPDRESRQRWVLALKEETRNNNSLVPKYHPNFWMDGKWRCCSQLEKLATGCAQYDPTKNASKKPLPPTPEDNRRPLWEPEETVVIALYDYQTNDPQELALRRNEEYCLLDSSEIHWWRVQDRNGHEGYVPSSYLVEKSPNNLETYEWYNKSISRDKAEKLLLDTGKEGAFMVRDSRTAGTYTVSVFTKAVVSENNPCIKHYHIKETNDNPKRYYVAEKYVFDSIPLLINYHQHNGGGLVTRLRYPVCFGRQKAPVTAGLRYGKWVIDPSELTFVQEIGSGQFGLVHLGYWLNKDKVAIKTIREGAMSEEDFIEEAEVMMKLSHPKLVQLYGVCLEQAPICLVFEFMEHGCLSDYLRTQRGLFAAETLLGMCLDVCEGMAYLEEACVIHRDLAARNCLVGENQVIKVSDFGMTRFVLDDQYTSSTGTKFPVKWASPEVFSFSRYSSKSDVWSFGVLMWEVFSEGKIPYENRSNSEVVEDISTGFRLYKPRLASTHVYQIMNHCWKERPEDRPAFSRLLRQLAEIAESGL
Source text: FIGS. 10A and 10B provide effects of compounds 73, 72, 121, and 44, and control compounds, on neo-substrate and ITK or BTK levels after twenty-four hours in MOLT4 cells (FIG. 10A) and TMD8 cells (FIG. 10B).
FIGS. 11A and 11B provide effects of compounds 44, 72, and 149, and control compounds, on CRBN neo-substrate and ITK levels in MOLT4 cells (FIG. 11A) and TMD8 cells (FIG. 11B).
FIG. 12 provides effects of compounds 130, 149, and 44 on ITK levels and IMiD activity.

[3] = target: T2, Aiolos (Homo sapiens, UniProt Q96SW2+Q9UKT9); assay: Aiolos degradation in Mantle Cell Lymphoma lines (flow cytometry); assay type: cell-based; conditions: for IMiD activity (degradation of IMiD neo-substrates Ikaros and Aiolos): Mantle Cell Lymphoma lines Mino and Rec-1; for DC50: treatment time 24 h
T2 construct: endogenous in cells; host or cells: Mino, Rec-1
Source text: Ikaros and Aiolos Degradation in Mantle Cell Lymphoma Lines (Ikaros and Aiolos Flow Cytometry)
This example evaluates the IMiD activity of CTMs in cellular models of Mantle Cell Lymphoma (MCL). […] These assays are to determine potency of CTMs for degrading IMiD neo-substrates in cellular models of MCL and to generate data to inform efficacy studies in MCL xenografts.

[4] = target: T3, BTK (Mus musculus, UniProt P35991); assay: In vivo degradation of BTK in mouse PD experiments with oral dosing
T3 construct: from tissue; host or cells: mouse blood B cells / splenocytes (CD-1 or BALB/c)
Outline: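 BTK in blood or splenocytes read by flow cytometry (or HTRF), degradation taken as B-cell minus T-cell BTK MFI versus vehicle. Mice (CD-1 or BALB/c) received compound orally, initially 90 mg/kg for 6 h, then lower doses and longer time points.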

[5] = 1.4 nM, fold-change of response relative to baseline
[6] = 37 nM, fold-change of response relative to baseline
[7] = 333 nM, fold-change of response relative to baseline (stimulation without compound)
[8] = oral dose 30 mg/kg, 24 h, blood, flow cytometry
[9] = oral dose 10 mg/kg, 24 h, splenocytes, HTRF
[10] = oral dose 30 mg/kg, 24 h, splenocytes, HTRF
[11] = after twenty-four hours, TMD8 and/or MOLT4 cells, FIGS. 10A and 10B

T3 sequence (P35991 whole entry): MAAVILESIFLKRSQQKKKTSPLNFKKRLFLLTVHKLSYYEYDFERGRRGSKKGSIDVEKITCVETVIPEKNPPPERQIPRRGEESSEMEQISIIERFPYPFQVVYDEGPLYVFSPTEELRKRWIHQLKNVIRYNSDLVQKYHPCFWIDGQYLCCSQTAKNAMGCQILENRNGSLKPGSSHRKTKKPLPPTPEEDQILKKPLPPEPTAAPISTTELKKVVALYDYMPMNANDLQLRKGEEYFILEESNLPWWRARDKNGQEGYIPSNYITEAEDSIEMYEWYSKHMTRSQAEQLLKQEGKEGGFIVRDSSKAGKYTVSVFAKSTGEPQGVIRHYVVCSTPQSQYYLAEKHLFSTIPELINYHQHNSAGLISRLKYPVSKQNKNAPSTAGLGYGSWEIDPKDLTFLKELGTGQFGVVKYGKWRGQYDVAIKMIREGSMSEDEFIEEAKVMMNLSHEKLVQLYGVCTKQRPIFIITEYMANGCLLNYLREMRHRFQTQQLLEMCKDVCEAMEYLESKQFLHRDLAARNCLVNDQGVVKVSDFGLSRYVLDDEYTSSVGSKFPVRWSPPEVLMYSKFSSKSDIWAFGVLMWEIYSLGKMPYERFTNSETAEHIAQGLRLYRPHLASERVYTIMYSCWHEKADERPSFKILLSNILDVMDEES
T2 sequence (Q9UKT9 whole entry): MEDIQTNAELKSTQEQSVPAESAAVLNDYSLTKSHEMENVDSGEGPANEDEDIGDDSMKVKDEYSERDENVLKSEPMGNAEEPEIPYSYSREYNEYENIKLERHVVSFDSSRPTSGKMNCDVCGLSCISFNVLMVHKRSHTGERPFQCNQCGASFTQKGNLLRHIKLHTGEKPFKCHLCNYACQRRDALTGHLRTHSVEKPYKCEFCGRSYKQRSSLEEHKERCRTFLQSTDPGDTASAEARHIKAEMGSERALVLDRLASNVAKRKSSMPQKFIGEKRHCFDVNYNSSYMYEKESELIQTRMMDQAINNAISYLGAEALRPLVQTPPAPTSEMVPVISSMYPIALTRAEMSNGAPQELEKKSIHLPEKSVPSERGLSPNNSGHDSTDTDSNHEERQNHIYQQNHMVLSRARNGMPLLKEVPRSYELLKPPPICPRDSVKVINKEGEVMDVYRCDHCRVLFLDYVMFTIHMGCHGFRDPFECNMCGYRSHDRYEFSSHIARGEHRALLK
T2 sequence (Q96SW2 whole entry): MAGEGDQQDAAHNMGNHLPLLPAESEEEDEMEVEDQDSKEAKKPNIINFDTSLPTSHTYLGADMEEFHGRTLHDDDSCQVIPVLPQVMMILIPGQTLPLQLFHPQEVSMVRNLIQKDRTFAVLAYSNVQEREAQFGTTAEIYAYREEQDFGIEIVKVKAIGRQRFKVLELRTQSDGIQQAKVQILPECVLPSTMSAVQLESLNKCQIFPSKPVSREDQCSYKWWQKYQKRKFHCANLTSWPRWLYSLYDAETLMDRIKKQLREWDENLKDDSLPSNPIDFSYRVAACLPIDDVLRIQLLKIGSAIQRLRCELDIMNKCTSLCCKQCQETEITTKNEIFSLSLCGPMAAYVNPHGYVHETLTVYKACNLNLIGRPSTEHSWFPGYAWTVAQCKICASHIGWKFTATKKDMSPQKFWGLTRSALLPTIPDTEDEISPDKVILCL
T2 sequence (Q16531 whole entry partner): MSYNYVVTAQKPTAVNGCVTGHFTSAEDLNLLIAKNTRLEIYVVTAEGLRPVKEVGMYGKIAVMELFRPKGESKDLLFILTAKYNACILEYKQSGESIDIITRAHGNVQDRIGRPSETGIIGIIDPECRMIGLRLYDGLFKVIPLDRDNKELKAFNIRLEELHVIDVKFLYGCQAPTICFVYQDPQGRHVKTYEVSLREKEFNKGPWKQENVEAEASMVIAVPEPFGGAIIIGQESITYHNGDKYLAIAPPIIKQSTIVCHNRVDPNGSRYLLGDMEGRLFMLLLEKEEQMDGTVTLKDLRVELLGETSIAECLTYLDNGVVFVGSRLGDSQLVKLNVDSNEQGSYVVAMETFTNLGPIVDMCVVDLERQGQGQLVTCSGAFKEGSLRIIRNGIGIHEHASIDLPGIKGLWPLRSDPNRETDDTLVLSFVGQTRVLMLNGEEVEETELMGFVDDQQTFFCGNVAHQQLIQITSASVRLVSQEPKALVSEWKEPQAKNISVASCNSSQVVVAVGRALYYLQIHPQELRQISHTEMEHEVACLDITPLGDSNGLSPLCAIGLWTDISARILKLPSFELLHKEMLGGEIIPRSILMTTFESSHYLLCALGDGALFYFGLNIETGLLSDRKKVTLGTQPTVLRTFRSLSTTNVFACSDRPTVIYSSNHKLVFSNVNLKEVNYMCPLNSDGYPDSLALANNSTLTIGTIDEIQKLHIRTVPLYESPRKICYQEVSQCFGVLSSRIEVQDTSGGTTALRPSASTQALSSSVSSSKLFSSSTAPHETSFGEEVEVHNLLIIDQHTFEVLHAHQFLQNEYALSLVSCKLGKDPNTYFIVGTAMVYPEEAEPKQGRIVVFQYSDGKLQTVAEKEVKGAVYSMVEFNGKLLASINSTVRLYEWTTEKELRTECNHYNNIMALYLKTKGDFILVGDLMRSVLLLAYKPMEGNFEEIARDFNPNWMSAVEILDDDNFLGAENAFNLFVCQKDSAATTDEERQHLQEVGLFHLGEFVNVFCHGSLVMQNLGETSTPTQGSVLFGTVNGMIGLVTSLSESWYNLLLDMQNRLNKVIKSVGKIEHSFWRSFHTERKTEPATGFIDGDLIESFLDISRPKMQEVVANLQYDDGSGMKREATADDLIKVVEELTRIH

effects on ITK levels ([2]; FIG. 12) | DC50 ([3]; Mino cells) [nM] | DC50 ([3]; Rec-1 cells) [nM] | % BTK Remaining [4, 8] [%] | % BTK Remaining [4, 10] [%] | effects on ITK levels [2, 11] | Structure (SMILES) | IL-2 Secretion Anti-CD3/Anti-CD28 Stimulation [1, 5] | IL-2 Secretion Anti-CD3/Anti-CD28 Stimulation [1, 6] | IL-2 Secretion Anti-CD3/Anti-CD28 Stimulation [1, 7] | IMiD activity (degradation of IMiD neo-substrates Ikaros and Aiolos) [3] | IL-2 secretion compared to baseline (anti-CD3/anti-CD28 stimulation alone) [1] | effect on ITK levels in cells [2] | % BTK Remaining [4, 9] [%] | other results
slight effects | > 2000 | > 2000 | 5 |  |  | CN1CCN([C@H]2CCCN(c3cnc(C(N)=O)c(Nc4ccc(C5CCN(CC6CCN(c7ccc(C(=O)NC8CCC(=O)NC8=O)nc7)CC6)CC5)cc4)n3)C2)C1=O (stereo partly shown) [Compound 130] | 1.19 | 1.42 | 2.02 | not others |  |  |  | 
 |  |  | 28 | 33 | minimal effects | CN1CCN([C@@H]2CCCN(c3cnc(C(N)=O)c(Nc4ccc(C5CCN(CC6CCN(c7ccc(-c8nn(C9CCC(=O)NC9=O)c(=O)n8C)cc7)CC6)CC5)cc4)n3)C2)C1=O (stereo partly shown) [Compound 121] |  |  |  |  |  |  |  | % BTK Remaining ([4]; oral dose 0.3 mg/kg, 24 h, blood, flow cytometry): 102%; % BTK Remaining ([4]; oral dose 3 mg/kg, 24 h, blood, flow cytometry): 68%

The remaining lines, values behind:

Structure (SMILES) | effects on ITK levels ([2]; FIG. 12) | DC50 ([3]; Mino cells) [nM] | DC50 ([3]; Rec-1 cells) [nM] | % BTK Remaining [4, 8] [%] | % BTK Remaining [4, 10] [%] | effects on ITK levels [2, 11] | IL-2 Secretion Anti-CD3/Anti-CD28 Stimulation [1, 5] | IL-2 Secretion Anti-CD3/Anti-CD28 Stimulation [1, 6] | IL-2 Secretion Anti-CD3/Anti-CD28 Stimulation [1, 7] | IMiD activity (degradation of IMiD neo-substrates Ikaros and Aiolos) [3] | IL-2 secretion compared to baseline (anti-CD3/anti-CD28 stimulation alone) [1] | effect on ITK levels in cells [2] | % BTK Remaining [4, 9] [%] | other results
NC(=O)c1ncc(N2CCCCC2)nc1Nc1ccc(C2CCN(C[C@@H]3CCN(c4ccc5c(c4)C(=O)N(C4CCC(=O)NC4=O)C5=O)C3)CC2)cc1 (stereo partly shown) [Compound 149] |  | 87 | 81 | 11 | 8 |  | 1.86 | 3.63 | 4.24 | demonstrate IMiD activity | increased IL-2 secretion but not to the level observed with IMiDs | some effect | 21 | % BTK Remaining ([4]; oral dose 10 mg/kg, 24 h, blood, flow cytometry): 27%; % BTK Remaining ([4]; oral dose 90 mg/kg, 24 h, blood, flow cytometry): 1%; % BTK Remaining ([4]; oral dose 90 mg/kg, 24 h, splenocytes, HTRF): 1%
CN1CCN([C@@H]2CCCN(c3cnc(C(N)=O)c(Nc4ccc(C5CCN(C[C@H]6CCN(c7ccc8c(c7)C(=O)N(C7CCC(=O)NC7=O)C8=O)C6)CC5)cc4)n3)C2)C1=O (stereo partly shown) [Compound 44] |  | 100 | 70 |  | 23 | some effects | 1.43 | 3.49 | 3.75 |  | increased IL-2 secretion but not to the level observed with IMiDs | some effect | 34 | % BTK Remaining ([4]; dose 1(IV) mg/kg, 24 h, splenocytes, HTRF): 58%; % BTK Remaining ([4]; oral dose 1 mg/kg, 6 h, splenocytes, HTRF): 58%; % BTK Remaining ([4]; oral dose 3 mg/kg, 6 h, splenocytes, HTRF): 32%; % BTK Remaining ([4]; oral dose 10 mg/kg, 6 h, splenocytes, HTRF): 11%; % BTK Remaining ([4]; oral dose 30 mg/kg, 6 h, splenocytes, HTRF): 4%; % BTK Remaining ([4]; oral dose 90 mg/kg, 6 h, splenocytes, HTRF): 4%
CN1CCN([C@@H]2CCCN(c3cnc(C(N)=O)c(Nc4ccc(C5CCN(CC6CCN(c7ccc8c(=O)n(C9CCC(=O)NC9=O)ccc8c7)CC6)CC5)cc4)n3)C2)C1=O (stereo partly shown) [Compound 72] | slight effects |  |  |  | 20 | does affect |  |  |  |  |  |  |  | 
